# Measurements reported in patent US20250195521A1 (Revolution Medicines, Inc., priority 2020, published 2025).
# Where two headings read alike, the source gives them in different places.
# How the values were obtained:
# [1] = system: Capan-1 cells (K-Ras G12V); experiment: CellTiter-Glo cell viability, Capan-1; format: cell-based, human; settings: K-Ras G12V, 5-day treatment, read-out: Capan-1 Cell Viability IC50
# How it was run: (§1)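 Viability read by luminescence on day 5 after direct compound addition to cells, following ~30 min room-temperature equilibration. Values expressed as percent of mean DMSO signal, curves fitted with a four-parameter logistic model.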
# [2] = system: NCI-H358 cells (K-Ras G12C); experiment: CellTiter-Glo cell viability, NCI-H358; format: cell-based, human; settings: K-Ras G12C, 5-day treatment, read-out: H358 Cell Viability IC50
# How it was run: as §1
# [3] = system: K-Ras G12C (NCI-H358 cells); experiment: Potency assay: pERK in NCI-H358 cells; format: cell-based, human; settings: Homo sapiens; NCI-H358 cells, 4 hours; read-out: pERK EC50 (H358 KRAS G12C)
# How it was run: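 Cells plated the day before were exposed for 4 h at 37° C, 5% CO2 to a 10-point, 3-fold DMSO dilution series (10 mM top stock), in duplicate. Phospho-ERK was read by AlphaLISA SureFire Ultra or by In-Cell Western with DRAQ5 DNA stain, and IC50 came from a 4-parameter sigmoidal fit.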
# KRAS G12D = KRAS G12D (Homo sapiens (Human), UniProt P01116+P62937, G12D); experiment: Ras-Raf disruption/FRET/MOA assay (BRAF RBD, Cyclophilin A); format: biochemical; settings: read-out: KRAS G12D FRET IC50
# How it was run: (§2)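 TR-FRET readout: anti-His Eu-W1024 (10 nM) and anti-GST allophycocyanin (50 nM) added after 3 h, 25° C compound incubation, then 1.5 h more. Decrease in FRET ratio versus DMSO wells marks Ras:RAF disruption; IC50 reported.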
# KRAS G12C = KRAS G12C (Homo sapiens (Human), UniProt P01116+P62937, G12C); experiment: as above; format: biochemical; settings: read-out: KRAS G12C FRET IC50
# How it was run: as §2
# KRAS G13D = KRAS G13D (Homo sapiens (Human), UniProt P01116+P62937, G13D); experiment: as above; format: biochemical; settings: read-out: KRAS G13D FRET data IC50
# How it was run: as §2
# NRAS Q61R = NRAS Q61R (Homo sapiens (Human), UniProt P01111+P62937, Q61R); experiment: as above; format: biochemical
# How it was run: (§3)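 TR-FRET read after 1.5 h with 10 nM anti-His Eu-W1024 and 50 nM anti-GST APC, following 3 h at 25 °C of GMPPNP-loaded His6-Ras (12.5 nM), GST-BRAF RBD (50 nM) and Cyclophilin A (25 μM) with compound from 30 μM final, 10 points, 3-fold. IC50 reported; pH 7.3 HEPES, 100 mM NaCl.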
# KRAS G12S = KRAS G12S (Homo sapiens (Human), UniProt P01116+P62937, G12S); experiment: as above; format: biochemical; settings: read-out: KRAS G12S FRET IC50
# How it was run: as §2
# KRAS WT = KRAS WT (Homo sapiens (Human), UniProt P01116+P62937); experiment: as above; format: biochemical; settings: read-out: KRAS WT FRET data IC50
# How it was run: as §2
# NRAS WT = NRAS WT (Homo sapiens (Human), UniProt P01111+P62937); experiment: as above; format: biochemical
# How it was run: as §3
# KRAS G13C = KRAS G13C (Homo sapiens (Human), UniProt P01116+P62937, G13C); experiment: as above; format: biochemical; settings: read-out: KRAS G13C FRET IC50
# How it was run: as §2
# NRAS G12C = NRAS G12C (Homo sapiens (Human), UniProt P01111+P62937, G12C); experiment: as above; format: biochemical; settings: read-out: NRAS G12C FRET data IC50
# How it was run: as §3
# KRAS G12V = KRAS G12V (Homo sapiens (Human), UniProt P01116+P62937, G12V); experiment: as above; format: biochemical; settings: read-out: KRAS G12V FRET IC50
# How it was run: as §2
# KRAS Q61H = KRAS Q61H (Homo sapiens (Human), UniProt P01116+P62937, Q61H); experiment: as above; format: biochemical
# How it was run: as §2
# [4] = biological target: K-Ras G12C(GMP-PNP) binding to BRAF RBD (Homo sapiens (Human), UniProt P01116+P62937, G12C); experiment: Disruption of BRAF RBD interaction with K-Ras (FRET / MOA assay), K-Ras G12C; format: biochemical; settings: read-out: KRAS G12C FRET IC50
# How it was run: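 Incubation of compound (up to 30 μM final, 3-fold steps) with GMP-PNP-type loaded Ras isoform, cyclophilin A and BRAF RBD ran 3 h at 25° C, followed by 1.5 h with detection antibodies. Disruption appears as a reduced TR-FRET ratio compared with DMSO controls, expressed as IC50.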
# NCI-H358 (K-Ras G12C) = experiment: CellTiter-Glo cell viability assay, NCI-H358; format: cell-based, human; settings: Homo sapiens, NCI-H358, 120 h, 5-day treatment; read-out: H358 Cell Viability assay data (K-Ras G12C, IC50)
# How it was run: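 Viability read-out was luminescent (CellTiter-Glo) on day 5 of compound exposure in K-Ras G12C NCI-H358 cells. Values were expressed as percent of mean DMSO signal and fitted with a four-parameter logistic curve.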
# Chain of KRAS G12D (P01116 other isoform, or with tags, fused parts or gaps G12D): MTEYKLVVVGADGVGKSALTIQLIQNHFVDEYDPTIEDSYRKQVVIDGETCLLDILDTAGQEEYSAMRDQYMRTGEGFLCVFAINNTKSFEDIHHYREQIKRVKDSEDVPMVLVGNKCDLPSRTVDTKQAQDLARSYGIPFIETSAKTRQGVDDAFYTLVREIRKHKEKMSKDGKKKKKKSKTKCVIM
# Chain of KRAS G12D (P62937 whole entry): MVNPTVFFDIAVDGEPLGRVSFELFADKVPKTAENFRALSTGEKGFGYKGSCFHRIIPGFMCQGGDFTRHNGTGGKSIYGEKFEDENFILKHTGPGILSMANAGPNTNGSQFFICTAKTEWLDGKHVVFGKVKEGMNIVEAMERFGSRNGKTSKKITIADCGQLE
# Chain of NRAS Q61R (P01111 whole entry Q61R): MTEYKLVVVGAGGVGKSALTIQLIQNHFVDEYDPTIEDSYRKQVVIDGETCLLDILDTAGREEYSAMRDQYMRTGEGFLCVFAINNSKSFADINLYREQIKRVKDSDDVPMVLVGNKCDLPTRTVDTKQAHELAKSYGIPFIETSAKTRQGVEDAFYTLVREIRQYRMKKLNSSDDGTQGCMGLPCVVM
# Chain of NRAS Q61R (P62937 whole entry): as the sequence (P62937 whole entry) above
# Chain of NRAS G12C (P01111 whole entry G12C): as the sequence (P01111 whole entry Q61R) above, with G12C, R61Q counted along it
# Chain of NRAS G12C (P62937 whole entry): as the sequence (P62937 whole entry) above
# Chain of KRAS G13C (P01116 other isoform, or with tags, fused parts or gaps G13C): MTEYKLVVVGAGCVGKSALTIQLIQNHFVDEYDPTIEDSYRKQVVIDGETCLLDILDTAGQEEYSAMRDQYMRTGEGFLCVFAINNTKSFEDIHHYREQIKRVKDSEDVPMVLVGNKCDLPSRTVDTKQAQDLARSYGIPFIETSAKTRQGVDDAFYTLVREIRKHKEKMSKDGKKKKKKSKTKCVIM
# Chain of KRAS G13C (P62937 whole entry): as the sequence (P62937 whole entry) above
# Chain of KRAS Q61H (P01116 other isoform, or with tags, fused parts or gaps Q61H): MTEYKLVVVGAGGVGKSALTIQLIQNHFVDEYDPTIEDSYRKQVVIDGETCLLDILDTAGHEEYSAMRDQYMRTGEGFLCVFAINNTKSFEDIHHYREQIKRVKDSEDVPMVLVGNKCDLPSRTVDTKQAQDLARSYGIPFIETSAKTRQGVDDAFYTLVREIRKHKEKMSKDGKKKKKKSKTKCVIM
# Chain of KRAS Q61H (P62937 whole entry): as the sequence (P62937 whole entry) above
# Chain of NRAS WT (P01111 whole entry): as the sequence (P01111 whole entry Q61R) above, with R61Q counted along it
# Chain of NRAS WT (P62937 whole entry): as the sequence (P62937 whole entry) above
# Chain of KRAS WT (P01116 other isoform, or with tags, fused parts or gaps): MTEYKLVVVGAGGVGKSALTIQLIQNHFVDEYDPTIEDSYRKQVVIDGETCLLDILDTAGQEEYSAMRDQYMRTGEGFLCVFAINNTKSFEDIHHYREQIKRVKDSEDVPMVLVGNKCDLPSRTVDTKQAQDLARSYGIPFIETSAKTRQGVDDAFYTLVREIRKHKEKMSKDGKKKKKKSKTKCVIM
# Chain of KRAS WT (P62937 whole entry): as the sequence (P62937 whole entry) above
# Chain of KRAS G12S (P01116 other isoform, or with tags, fused parts or gaps G12S): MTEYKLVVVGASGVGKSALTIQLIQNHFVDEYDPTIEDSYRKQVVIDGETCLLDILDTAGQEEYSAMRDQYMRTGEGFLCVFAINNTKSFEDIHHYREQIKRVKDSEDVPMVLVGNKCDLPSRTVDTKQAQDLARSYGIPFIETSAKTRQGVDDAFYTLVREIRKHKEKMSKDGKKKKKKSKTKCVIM
# Chain of KRAS G12S (P62937 whole entry): as the sequence (P62937 whole entry) above
# Chain of KRAS G12C (P01116-2 other isoform, or with tags, fused parts or gaps G12C): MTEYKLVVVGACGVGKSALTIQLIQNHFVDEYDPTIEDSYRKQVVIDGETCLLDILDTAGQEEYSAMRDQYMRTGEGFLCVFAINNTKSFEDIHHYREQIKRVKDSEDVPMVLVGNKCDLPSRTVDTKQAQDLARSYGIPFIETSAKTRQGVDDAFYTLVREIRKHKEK
# Chain of KRAS G12C (P62937 whole entry): as the sequence (P62937 whole entry) above
# Chain of KRAS G12V (P01116 other isoform, or with tags, fused parts or gaps G12V): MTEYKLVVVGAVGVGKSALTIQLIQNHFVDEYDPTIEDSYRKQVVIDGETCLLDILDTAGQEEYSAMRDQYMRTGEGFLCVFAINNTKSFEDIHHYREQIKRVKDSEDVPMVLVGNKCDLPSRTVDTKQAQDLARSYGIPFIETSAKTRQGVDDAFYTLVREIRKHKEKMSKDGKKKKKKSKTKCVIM
# Chain of KRAS G12V (P62937 whole entry): as the sequence (P62937 whole entry) above
# Chain of KRAS G13D (P01116 other isoform, or with tags, fused parts or gaps G13D): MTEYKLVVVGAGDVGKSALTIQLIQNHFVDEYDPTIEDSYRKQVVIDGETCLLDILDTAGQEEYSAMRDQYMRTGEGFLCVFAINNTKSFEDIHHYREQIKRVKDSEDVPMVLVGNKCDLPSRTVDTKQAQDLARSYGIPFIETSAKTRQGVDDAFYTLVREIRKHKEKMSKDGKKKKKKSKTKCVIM
# Chain of KRAS G13D (P62937 whole entry): as the sequence (P62937 whole entry) above
# Chain of K-Ras G12C(GMP-PNP) binding to BRAF RBD (P01116 other isoform, or with tags, fused parts or gaps G12C): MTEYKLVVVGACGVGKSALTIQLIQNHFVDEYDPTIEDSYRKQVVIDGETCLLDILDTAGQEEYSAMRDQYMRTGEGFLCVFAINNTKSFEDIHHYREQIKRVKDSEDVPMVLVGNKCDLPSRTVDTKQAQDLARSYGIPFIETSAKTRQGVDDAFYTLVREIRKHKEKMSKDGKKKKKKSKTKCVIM
# Chain of K-Ras G12C(GMP-PNP) binding to BRAF RBD (P62937 whole entry, canonical isoform): as the sequence (P62937 whole entry) above
"IC50 ([2]; Homo sapiens, NCI-H358, 120 h) [nM]",EC50 [3] [nM],IC50 (KRAS G12D) [nM],IC50 (KRAS G12C) [nM],IC50 (KRAS G13D) [nM],IC50 (NRAS Q61R) [nM],IC50 (KRAS G12S) [nM],IC50 (KRAS WT) [nM],IC50 (NRAS WT) [nM],IC50 (KRAS G13C) [nM],IC50 (NRAS G12C) [nM],IC50 (KRAS G12V) [nM],IC50 (KRAS Q61H) [nM],IC50 [4] [nM],IC50 (NCI-H358 (K-Ras G12C)) [nM],IC50 [2] [nM],Structure (SMILES),"IC50 ([1]; Homo sapiens, CAPAN-1, 120 h) [nM]",IC50 [1] [nM]
–,< 5000,–,–,–,100 to 1000,–,–,100 to 1000,–,–,–,100 to 1000,–,–,–,CCn1c(-c2cccnc2[C@H](C)OC)c2c3cc(ccc31)-c1csc(n1)C[C@H](NC(=O)[C@H](C(C)C)N(C)C(=O)N1CC(C#N)(N(C)C)C1)C(=O)N1CCC[C@H](N1)C(=O)OCC(C)(C)C2 [Compound A452],–,–
–,–,100 to 1000,10 to 100,100 to 1000,100 to 1000,100 to 1000,100 to 1000,100 to 1000,100 to 1000,10 to 100,100 to 1000,10 to 100,–,–,–,CCn1c(-c2cccnc2[C@H](C)OC)c2c3cc(ccc31)-c1csc(n1)C[C@H](NC(=O)[C@H](C(C)C)N(C)C(=O)N1CC([C@@H](CO)OC)C1)C(=O)N1CCC[C@H](N1)C(=O)OCC(C)(C)C2 [Compound A514],10 to 100,–
–,< 5000,100 to 1000,10 to 100,100 to 1000,100 to 1000,100 to 1000,100 to 1000,100 to 1000,100 to 1000,10 to 100,100 to 1000,10 to 100,–,–,–,CCn1c(-c2cccnc2[C@H](C)OC)c2c3cc(ccc31)-c1csc(n1)C[C@H](NC(=O)[C@H](C(C)C)N(C)C(=O)N1CC([C@H](CO)OC)C1)C(=O)N1CCC[C@H](N1)C(=O)OCC(C)(C)C2 [Compound A515],10 to 100,–
< 10,< 5000,100 to 1000,10 to 100,100 to 1000,–,100 to 1000,10 to 100,10 to 100,100 to 1000,10 to 100,100 to 1000,10 to 100,–,–,–,CCn1c(-c2cccnc2[C@H](C)OC)c2c3cc(ccc31)-c1csc(n1)C[C@H](NC(=O)[C@H](C(C)C)N(C)C(=O)N1CCN3C(=O)CN(C)C[C@@H]3C1)C(=O)N1CCC[C@H](N1)C(=O)OCC(C)(C)C2 [Compound A536],10 to 100,–
–,–,100 to 1000,10 to 100,100 to 1000,100 to 1000,100 to 1000,100 to 1000,100 to 1000,100 to 1000,10 to 100,100 to 1000,10 to 100,–,–,–,CCn1c(-c2cccnc2[C@H](C)OC)c2c3cc(ccc31)-c1csc(n1)C[C@H](NC(=O)[C@H](C(C)C)N(C)C(=O)N1CC(C(=O)N3CCOCC3)C1)C(=O)N1CCC[C@H](N1)C(=O)OCC(C)(C)C2 [Compound A543],10 to 100,–
10 to 100,< 5000,100 to 1000,10 to 100,100 to 1000,–,100 to 1000,10 to 100,10 to 100,100 to 1000,10 to 100,100 to 1000,10 to 100,–,–,–,CCn1c(-c2cccnc2[C@H](C)OC)c2c3cc(ccc31)-c1csc(n1)C[C@H](NC(=O)[C@H](C(C)C)N(C)C(=O)N1CCC13COC3)C(=O)N1CCC[C@H](N1)C(=O)OCC(C)(C)C2 [Compound A560],100 to 1000,–

# The next lines start with the compound.
Structure (SMILES),"IC50 ([2]; Homo sapiens, NCI-H358, 120 h) [nM]",EC50 [3] [nM],IC50 (KRAS G12D) [nM],IC50 (KRAS G12C) [nM],IC50 (KRAS G13D) [nM],IC50 (NRAS Q61R) [nM],IC50 (KRAS G12S) [nM],IC50 (KRAS WT) [nM],IC50 (NRAS WT) [nM],IC50 (KRAS G13C) [nM],IC50 (NRAS G12C) [nM],IC50 (KRAS G12V) [nM],IC50 (KRAS Q61H) [nM],IC50 [4] [nM],IC50 (NCI-H358 (K-Ras G12C)) [nM],IC50 [2] [nM],"IC50 ([1]; Homo sapiens, CAPAN-1, 120 h) [nM]",IC50 [1] [nM]
CCn1c(-c2cccnc2[C@H](C)OC)c2c3cc(ccc31)-c1csc(n1)C[C@H](NC(=O)[C@H](C(C)C)N(C)C(=O)N1CC3(CN(C)C3)C1)C(=O)N1CCC[C@H](N1)C(=O)OCC(C)(C)C2 [Compound A268],100 to 1000,< 5000,100 to 1000,100 to 1000,100 to 1000,100 to 1000,100 to 1000,100 to 1000,100 to 1000,100 to 1000,10 to 100,100 to 1000,–,–,–,–,100 to 1000,–
CCn1c(-c2cccnc2[C@H](C)OC)c2c3cc(ccc31)-c1csc(n1)C[C@H](NC(=O)[C@H](C(C)C)N(C)C(=O)N1CC(C(C)(C)O)C1)C(=O)N1CCC[C@H](N1)C(=O)OCC(C)(C)C2 [Compound A289],–,–,100 to 1000,10 to 100,100 to 1000,100 to 1000,100 to 1000,100 to 1000,100 to 1000,100 to 1000,10 to 100,100 to 1000,10 to 100,–,–,–,10 to 100,–
CCn1c(-c2cccnc2[C@H](C)OC)c2c3cc(ccc31)-c1csc(n1)C[C@H](NC(=O)[C@H](C(C)C)N(C)C(=O)N1C[C@H]3COC[C@H]3C1)C(=O)N1CCC[C@H](N1)C(=O)OCC(C)(C)C2 [Compound A312],10 to 100,–,100 to 1000,10 to 100,100 to 1000,–,10 to 100,10 to 100,10 to 100,100 to 1000,10 to 100,100 to 1000,10 to 100,> 10000,> 10000,–,10 to 100,–
CCn1c(-c2cccnc2[C@H](C)OC)c2c3cc(ccc31)-c1csc(n1)C[C@H](NC(=O)[C@H](C(C)C)N(C)C(=O)N1CC(C(=O)O)C1)C(=O)N1CCC[C@H](N1)C(=O)OCC(C)(C)C2 [Compound A344],–,< 5000,1000 to 10000,100 to 1000,1000 to 10000,100 to 1000,100 to 1000,100 to 1000,100 to 1000,100 to 1000,100 to 1000,100 to 1000,100 to 1000,–,–,–,> 10000,–
CCn1c(-c2cccnc2[C@H](C)OC)c2c3cc(ccc31)-c1csc(n1)C[C@H](NC(=O)[C@H](C(C)C)N(C)C(=O)N1CC(O)C1)C(=O)N1CCC[C@H](N1)C(=O)OCC(C)(C)C2 [Compound A358],–,< 5000,100 to 1000,10 to 100,100 to 1000,100 to 1000,100 to 1000,100 to 1000,100 to 1000,100 to 1000,10 to 100,100 to 1000,10 to 100,–,–,–,10 to 100,–
CCn1c(-c2cccnc2[C@H](C)OC)c2c3cc(ccc31)-c1csc(n1)C[C@H](NC(=O)N1CCC1)C(=O)N1CCC[C@H](N1)C(=O)OCC(C)(C)C2 [Compound A369],–,–,1000 to 10000,100 to 1000,100 to 1000,100 to 1000,100 to 1000,–,–,100 to 1000,–,100 to 1000,100 to 1000,–,–,100 to 1000,–,100 to 1000
